The values that follow come from the supplement of paper PMC11061612.

Molecules are shown by their SMILES.

Experiment in all cases: Bliss excess, mean over the matrix (fraction); higher = more synergy
The test system of experiment [1] is CHL-1 (Melanoma). Summed up:
(§1)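 Cell lines grown in DMEM/F12 or RPMI with 10% FBS were plated in 1536-well plates and held 24 hours at 37°C, 5% CO2 before 72 hours of exposure to two-drug dose matrices, with DMSO typically at 0.2%. CellTiter-Glo 2.0 luminescence gave viability, which was converted to inhibition. Vehicle wells were set to 0 and blank wells to 1. Combination Emax is the second-highest inhibition in the matrix, and Bliss excess is the observed combination effect minus the expected EA + EB − EA·EB, where EA and EB are the single-agent effects.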

Experiment [2] concerns CML-T1 (Chronic Myelogenous Leukemia). Summed up:
as §1

Experiment [3] deals with COLO-684 (Endometrial Carcinoma). Summed up: as §1
For experiment [4], the system named is Calu-6 (Non-Small Cell Lung Carcinoma). In outline: as §1
In experiment [5] the test system is EB-3 (Burkitt's Lymphoma). Summed up: as §1
The subject of experiment [6] is FLO-1 (Esophageal Adenocarcinoma). Summed up:
as §1

In experiment [7] the test system is HSC-3 (Oral Cavity Carcinoma). Summed up:
as §1

Experiment [8] relates to HuO-3N1 (Osteosarcoma). Summed up:
as §1

The test system of experiment [9] is JHH-1 (Hepatocellular Carcinoma). Summed up: as §1
For experiment [10], the system named is KYM-1 (Rhabdomyosarcoma). In outline: as §1
Experiment [11] has as its system KYSE-70 (Esophageal Squamous Cell Carcinoma). Summed up:
as §1

Experiment [12] deals with NCI-H1155 (Non-Small Cell Lung Carcinoma). In outline:
as §1

The test system of experiment [13] is NCI-H1623 (Lung Adenocarcinoma). Summed up: as §1
Experiment [14] relates to NCI-H1755 (Lung Adenocarcinoma). Summed up:
as §1

The test system of experiment [15] is NCI-H196 (Small Cell Lung Carcinoma). Summed up: as §1
The test system of experiment [16] is OV-90 (Ovarian Carcinoma). In outline: as §1
In experiment [17] the test system is RL95-2 (Endometrial Carcinoma). Summed up:
as §1

The test system of experiment [18] is RPMI-8866 (Chronic Myelogenous Leukemia). In outline: as §1
In experiment [19] the test system is SJRH30 (Rhabdomyosarcoma). Summed up:
as §1

Experiment [20] concerns SK-MM-2 (Plasma Cell Myeloma). In outline: as §1

As for `Cc1c2c(nn1C)CSCc1cc(n(C)n1)CSc1cc(c3ccccc3c1)OCCCc1c(C(=O)O)n(C)c3c-2c(Cl)ccc13` [AZD5991] + C[C@@H](Nc1cc(F)cc(F)c1)c1cc(C(=O)N(C)C)cc2c(=O)cc(N3CCOCC3)oc12 [AZD8186] (first compound max 1 µM, 7x7, partner max 3 µM), the Bliss excess in experiment [1] is 0.0292; in [2], -0.0081; in experiment [3] it was -0.0292; in experiment [4], -0.0018; in experiment [5], -0.0275; in [6], -0.0486. The Bliss excess in [7] is -0.001; in experiment [8] it was 0.0324; in experiment [9], 0.0056; in experiment [10], 0.0291; in [11], -0.0136; in experiment [12], -0.0105. For the same molecule, the Bliss excess in [13] is -0.0133; in experiment [14], 0.0317; in experiment [15], -0.0353; in experiment [16] it was -0.0496; in experiment [17] it was -0.0802; in [18], -0.041. In addition, the Bliss excess in experiment [19] was -0.0138; in [20], -0.0419.
Take `CC(=O)c1c(C)c2cnc(Nc3ccc(N4CCNCC4)cn3)nc2n(C2CCCC2)c1=O` [Palbociclib] + Cn1cnc2c(F)c(Nc3ccc(Br)cc3Cl)c(C(=O)NOCCO)cc21 [Selumetinib] (first compound max 10 µM, 7x7, partner max 10 µM): the Bliss excess in [1] was -0.0342; in experiment [2], -0.013; in [3] it was -0.04; in [4] it was -0.102; in [5], -0.0727; in [6], 0.0209. Moreover, the Bliss excess in [7] was -0.0418; in [8], -0.0601; in [9] it was -0.0693; in experiment [10], -0.0022; in experiment [11], -0.0096; in [12], -0.0201. The Bliss excess in [13] is 0.0398; in experiment [14], 0.0425; in experiment [15], -0.0617; in [16], 0.0151; in [17], -0.0144; in [18], 0.0259. Moreover, the Bliss excess in experiment [19] was -0.0131; in experiment [20] it was -0.021.
Take `CC1(C)CCC(CN2CCN(c3ccc(C(=O)NS(=O)(=O)c4ccc(NCC5CCOCC5)c([N+](=O)[O-])c4)c(Oc4cnc5[nH]ccc5c4)c3)CC2)=C(c2ccc(Cl)cc2)C1` [Venetoclax] + C[C@@H]1COCCN1C2=NC(=NC(=C2)C3(CC3)[S@](=N)(=O)C)C4=C5C=CNC5=NC=C4 [AZD6738] (first compound max 1 µM, 7x7, partner max 10 µM): the Bliss excess in [1] was 0.0493; in [2], 0.0145; in experiment [3] it was 0.005; in experiment [4] it was -0.0261; in experiment [5] it was -0.0047; in experiment [6], -0.0338. Also, the Bliss excess is -0.0022 in experiment [7]; -0.0375 in experiment [8]; -0.0365 in experiment [9]; -0.0119 in experiment [10]; -0.0447 in experiment [11]; 0.0582 in [12]. Also, the Bliss excess in experiment [13] is 0.0068; in [14], -0.0578; in experiment [15], 0.0092; in experiment [16], 0.0022; in [17], -0.0361; in experiment [18] it was 0.0052. Moreover, the Bliss excess in experiment [19] was -0.0182; in [20], 0.0217.
`COc1cccc(OCCCN)c1-c1cc(Nc2cnc(C#N)cn2)n[nH]1` [Prexasertib] + O=C(c1cc(Cc2n[nH]c(=O)c3ccccc23)ccc1F)N1CCN(C(=O)C2CC2)CC1 [Olaparib] (first compound max 1 µM, 7x7, partner max 10 µM): the Bliss excess was -0.051 in [1]; -0.03 in experiment [2]; -0.128 in [3]; -0.0701 in experiment [4]; -0.195 in experiment [5]; -0.0721 in experiment [6]. Also, the Bliss excess in experiment [7] is -0.0093; in experiment [8], -0.0658; in experiment [9], -0.0416; in experiment [10], -0.0609; in [11], -0.0248; in experiment [12], -0.0309. Besides, the Bliss excess is -0.0777 in experiment [13]; -0.0582 in [14]; -0.0641 in experiment [15]; -0.0191 in [16]; -0.0343 in [17]; 0.0028 in experiment [18]. Besides, the figures for the Bliss excess in experiment [19] and in [20] were -0.104 and -0.011, respectively.
Turning to `CC1(C)CCC(CN2CCN(c3ccc(C(=O)NS(=O)(=O)c4ccc(NCC5CCOCC5)c([N+](=O)[O-])c4)c(Oc4cnc5[nH]ccc5c4)c3)CC2)=C(c2ccc(Cl)cc2)C1` [Venetoclax] + C=CCn1c(=O)c2cnc(Nc3ccc(N4CCN(C)CC4)cc3)nc2n1-c1cccc(C(C)(C)O)n1 [AZD1775] (first compound max 1 µM, partner max 1 µM), the Bliss excess is 0.0577 in experiment [1]; 0.0106 in experiment [2]; -0.0644 in experiment [3]; -0.0317 in [4]; -0.0193 in experiment [5]; 0.0161 in experiment [6]. For the same molecule, the Bliss excess in experiment [7] was -0.0216; in experiment [8] it was -0.0172; in [9] it was 0.0213; in experiment [10], 0.0082; in [11] it was -0.0169; in experiment [12], -0.0417. For the same molecule, the Bliss excess was -0.0218 in [13]; 0.054 in experiment [14]; -0.0007 in [15]; -0.0168 in experiment [16]; 0.0277 in [17]; -0.0547 in [18]. Moreover, the Bliss excess in experiment [19] is -0.045; in [20], 0.102.
Consider `Cc1c2c(nn1C)CSCc1cc(n(C)n1)CSc1cc(c3ccccc3c1)OCCCc1c(C(=O)O)n(C)c3c-2c(Cl)ccc13` [AZD5991] + C=CCn1c(=O)c2cnc(Nc3ccc(N4CCN(C)CC4)cc3)nc2n1-c1cccc(C(C)(C)O)n1 [AZD1775] (first compound max 1 µM, partner max 1 µM), for which the Bliss excess in experiment [1] was -0.0218; in [2] it was -0.0151; in experiment [3] it was -0.0587; in [4], -0.0963; in [5], -0.0242; in experiment [6] it was -0.0047. The Bliss excess in [7] was 0.0184; in experiment [8], 0.006; in [9] it was 0.03; in experiment [10], 0.0583; in experiment [11] it was 0.015; in experiment [12] it was 0.0707. The Bliss excess is 0.0167 in experiment [13]; 0.0006 in experiment [14]; -0.0266 in experiment [15]; -0.0929 in experiment [16]; 0.0116 in [17]; -0.0441 in experiment [18]. The values for the Bliss excess in [19] and in [20] were -0.0362 and -0.112, respectively.
